In general, pIC50 refers to the IC50 on a negative log10 scale, so that one unit is a factor of ten.

The source of these data is patent US20250179045A1, “LPAR1 ANTAGONISTS AND USES THEREOF” (Contineum Therapeutics, Inc., priority 2021, published 2025).

pIC50: −log10 of the molar value. Where only a bound is given, the exact number is not on record here.

human LPA1, sequence (Q92633 whole entry): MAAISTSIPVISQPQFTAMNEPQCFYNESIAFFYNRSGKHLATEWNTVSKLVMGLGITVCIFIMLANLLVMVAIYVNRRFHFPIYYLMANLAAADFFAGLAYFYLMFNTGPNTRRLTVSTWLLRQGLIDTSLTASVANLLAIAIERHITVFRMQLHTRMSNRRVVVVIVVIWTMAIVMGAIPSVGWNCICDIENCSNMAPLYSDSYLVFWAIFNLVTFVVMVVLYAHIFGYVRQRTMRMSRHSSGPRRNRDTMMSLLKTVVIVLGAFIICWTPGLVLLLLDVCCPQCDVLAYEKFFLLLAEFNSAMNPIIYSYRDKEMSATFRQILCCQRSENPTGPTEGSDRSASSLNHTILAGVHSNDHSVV

The assay has as its target human LPA1 (Homo sapiens, UniProt Q92633). Briefly: In vitro functional assay of lysophosphatidic acid receptor 1 activity (calcium flux). It counts as cell-based. The conditions noted are these: B103 cells stably expressing human LPA1; Fluo-4 NW calcium flux after lysophosphatidic acid (18:1) at EC80; compounds 100 pM to 10 μM; read-out: LPA1 IC50. Here is the method:
In vitro functional assay of lysophosphatidic acid receptor 1 activity
Primary compound plates were prepared in 100% DMSO (Sigma-Aldrich), secondary compound plates were prepared at 10× concentration in DiVEM (Invitrogen), and tertiary compound plates were prepared at 3x concentration in assay buffer containing HBSS (no Ca^+2/Mg^+2, Invitrogen) and 0.1% BSA (Sigma-Aldrich). Fluo-4 NW calcium assay dye (Invitrogen) was prepared as per manufacturer's recommendations in assay buffer. B103 cells stably expressing human LPA1(J. Chun lab, UCSD) were grown to confluency in DMEM media (Invitrogen) containing 10% FBS (ATCC), […] (Sigma-Aldrich) and […] Geneticin (Sigma-Aldrich), and detached with Accutase (Sigma-Aldrich) prior to assay. The freshly detached cells were resuspended in growth media and plated in black, clear-bottom 96-well plates (Costar) containing compound (i.e., secondary compound plate) at a density of 5×10^4 cells/well. Once plated, cells were left at room temperature for 30 minutes and then transferred to a 37° C., […] incubator for 24 hours. After 24 hours, the growth media was then removed and freshly prepared Fluo-4 NW calcium assay dye was added to cells. Compounds (i.e. tertiary compound plates) were then added back to the dye/cells, returned to the incubator for 30 minutes, and then kept at room temperature for an additional 30 minutes. Finally, lysophosphatidic acid (18:1) at the EC80 concentration was added and calcium flux measured using FlexStation 3 (Molecular Devices). Sigmoidal dose-response curves were generated by measuring […] over 45 sec and calculating the area under the curve. Dose response curves and IC50 values were generated using Prism (GraphPad). Compounds were tested at a final concentration range of 100 pM to 10 μM in 0.10% DMSO.
For orientation: Calcium assays in cells follow changes in intracellular calcium, usually with a dye or a luminescent sensor.
For the compound `Cc1ccc(NC(=O)C2(c3ccccc3C(C)C)CC(N(C)C)C2)c(OC(F)F)n1` (stereo not drawn) [Example 39, N-(2-(difluoromethoxy)-6-methylpyridin-3-yl)-3-(dimethylamino)-1-(2-isopropylphenyl)cyclobutane-1-carboxamide], the pIC50 is 6.00 to 7.00.

Consider `COc1ccc(NC(=O)C2(c3ccccc3C(C)C)CC(CC(=O)O)C2)c(OC(F)F)n1` (stereo not drawn) [Example 46, 2-(3-((2-(difluoromethoxy)-6-methoxypyridin-3-yl)carbamoyl)-3-(2-isopropylphenyl)cyclobutyl)acetic acid], for which the pIC50 was above 8.00. As to `CC(C)c1ccccc1C1(C(=O)Nc2ccc(OC(F)F)nc2Cl)CNC(=O)C1` (stereo not drawn) [Example 107, N-(2-chloro-6-(difluoromethoxy)pyridin-3-yl)-3-(2-isopropylphenyl)-5-oxopyrrolidine-3-carboxamide], the pIC50 was below 6.00.

With `C#CC1(O)CCC(C(=O)Nc2ccc(OC)nc2OC(F)F)(c2ccccc2C(C)C)CC1` (stereo not drawn) [Example 82, N-(2-(difluoromethoxy)-6-methoxypyridin-3-yl)-4-ethynyl-4-hydroxy-1-(2-isopropylphenyl)cyclohexane-1-carboxamide], the pIC50 was above 8.00. Consider `COc1cc(OC(F)F)c(NC(=O)C2(c3ccccc3C(C)C)COC2)cn1` [Example 25, N-(4-(difluoromethoxy)-6-methoxypyridin-3-yl)-3-(2-isopropylphenyl)oxetane-3-carboxamide], for which the pIC50 is 6.00 to 7.00. For `COc1ccc(NC(=O)C2(c3ccccc3C(C)C)CCC(O)CC2)c(OC(F)F)n1` (mixture of isomers) [Example 81, N-(2-(difluoromethoxy)-6-methoxypyridin-3-yl)-4-hydroxy-1-(2-isopropylphenyl)cyclohexane-1-carboxamide], the pIC50 is 7.00 to 8.00. Next, `CC(C)c1ccccc1C1(C(=O)Nc2ccc(Br)cc2OC(F)F)CNC(=O)C1` (stereo not drawn) [Example 105, N-(4-bromo-2-(difluoromethoxy)phenyl)-3-(2-isopropylphenyl)-5-oxopyrrolidine-3-carboxamide]: 7.00 to 8.00; `Cc1ccc(NC(=O)C2(c3ccccc3C(C)C)CNC(=O)C2)c(OC(F)F)n1` (stereo not drawn) [Example 9, N-(2-(difluoromethoxy)-6-methylpyridin-3-yl)-3-(2-isopropylphenyl)-5-oxopyrrolidine-3-carboxamide]: 7.00 to 8.00. The figure for `CNS(=O)(=O)C1CCC(C(=O)Nc2ccc(OC)nc2OC(F)F)(c2ccccc2C(C)C)CC1` (stereo not drawn) [Example 99, N-(2-(difluoromethoxy)-6-methoxypyridin-3-yl)-1-(2-isopropylphenyl)-4-(N-methylsulfamoyl)cyclohexane-1-carboxamide] is 6.00 to 7.00; for `COc1ccc(NC(=O)C2(c3ccccc3C(C)C)CC(=O)N(C)C2)c(OC(F)F)n1` (single isomer, unassigned) [Example 1, N-(2-(difluoromethoxy)-6-methoxypyridin-3-yl)-3-(2-isopropylphenyl)-1-methyl-5-oxopyrrolidine-3-carboxamide] it is 7.00 to 8.00; for `Cc1cc(OC(F)F)c(NC(=O)C2(c3ccccc3C(C)C)CC(=O)N(C)C2)cn1` (stereo not drawn) [Example 6, N-(4-(difluoromethoxy)-6-methylpyridin-3-yl)-3-(2-isopropylphenyl)-1-methyl-5-oxopyrrolidine-3-carboxamide] it is 6.00 to 7.00.

Take `Cc1ccc(NC(=O)C2(c3ccccc3C(C)C)CC(N3CCC3)C2)c(OC(F)F)n1` (stereo not drawn) [Example 41, 3-(azetidin-1-yl)-N-(2-(difluoromethoxy)-6-methylpyridin-3-yl)-1-(2-isopropylphenyl)cyclobutane-1-carboxamide]: the pIC50 is below 6.00. Next, `COc1ccc(NC(=O)C2(c3ccccc3C(C)C)CNC(=O)C2)c(OC)n1` (stereo not drawn) [Example 103, N-(2,6-dimethoxypyridin-3-yl)-3-(2-isopropylphenyl)-5-oxopyrrolidine-3-carboxamide]: 6.00 to 7.00; `COc1nc(Cl)ccc1NC(=O)C1(c2ccccc2C(C)C)COC1` [Example 28, N-(6-chloro-2-methoxypyridin-3-yl)-3-(2-isopropylphenyl)oxetane-3-carboxamide]: below 6.00; `Cc1ccc(NC(=O)C2(c3ccccc3C(C)C)CCOCC2)c(OC(F)F)n1` [Example 13, N-(2-(difluoromethoxy)-6-methylpyridin-3-yl)-4-(2-isopropylphenyl)tetrahydro-2H-pyran-4-carboxamide]: 7.00 to 8.00. Turning to `CNC1CC(C(=O)Nc2ccc(C)nc2OC(F)F)(c2ccccc2C(C)C)C1` (mixture of isomers) [Example 38, N-(2-(difluoromethoxy)-6-methylpyridin-3-yl)-1-(2-isopropylphenyl)-3-(methylamino)cyclobutane-1-carboxamide], the pIC50 is 6.00 to 7.00. The figure for `COc1ccc(NC(=O)C2(c3ccccc3C(C)C)CCC(NC(C)=O)CC2)c(OC(F)F)n1` (mixture of isomers) [Example 85, 4-acetamido-N-(2-(difluoromethoxy)-6-methoxypyridin-3-yl)-1-(2-isopropylphenyl)cyclohexane-1-carboxamide] is 6.00 to 7.00.

As for `CC(C)c1ccccc1C1(C(=O)Nc2ncc(Cl)cc2OC(F)F)CC(O)(C(F)(F)C(=O)O)C1` (single isomer, unassigned) [Example 55-isomer B, 2-(3-((5-chloro-3-(difluoromethoxy)pyridin-2-yl)carbamoyl)-1-hydroxy-3-(2-isopropylphenyl)cyclobutyl)-2,2-difluoroacetic acid], the pIC50 was 7.00 to 8.00.

In the case of `COc1cc(Br)ccc1NC(=O)C1(c2ccccc2C(C)C)CNC(=O)C1` (stereo not drawn) [Example 104, N-(4-bromo-2-methoxyphenyl)-3-(2-isopropylphenyl)-5-oxopyrrolidine-3-carboxamide], the pIC50 was 7.00 to 8.00. Next, `COc1ccc(NC(=O)C2(c3ccccc3C(C)C)CCC(S(N)(=O)=O)CC2)c(OC(F)F)n1` (stereo not drawn) [Example 97, N-(2-(difluoromethoxy)-6-methoxypyridin-3-yl)-1-(2-isopropylphenyl)-4-sulfamoylcyclohexane-1-carboxamide]: 6.00 to 7.00; `Cc1ccc(NC(=O)C2(c3ccccc3C(C)C)CC(CO)C2)c(OC(F)F)n1` (stereo not drawn) [Example 59, N-(2-(difluoromethoxy)-6-methylpyridin-3-yl)-3-(hydroxymethyl)-1-(2-isopropylphenyl)cyclobutane-1-carboxamide]: 7.00 to 8.00. Next, `Cc1ccc(NC(=O)C2(c3ccccc3C(C)C)CC(O)(c3ccc(C#N)cn3)C2)c(OC(F)F)n1` (stereo not drawn) [Example 50, 3-(5-cyanopyridin-2-yl)-N-(2-(difluoromethoxy)-6-methylpyridin-3-yl)-3-hydroxy-1-(2-isopropylphenyl)cyclobutane-1-carboxamide]: 7.00 to 8.00; `COc1cnc(NC(=O)C2(c3ccccc3C(C)C)COC2)c(OC(F)F)c1` [Example 35, N-(3-(difluoromethoxy)-5-methoxypyridin-2-yl)-3-(2-isopropylphenyl)oxetane-3-carboxamide]: 6.00 to 7.00.

On to `COc1ccc(NC(=O)C2(c3ccccc3C(C)C)CC(O)(C(F)(F)C(=O)O)C2)c(OC(F)F)n1` (single isomer, unassigned) [Example 54-isomer B, 2-(3-((2-(difluoromethoxy)-6-methoxypyridin-3-yl)carbamoyl)-1-hydroxy-3-(2-isopropylphenyl)cyclobutyl)-2,2-difluoroacetic acid], for which the pIC50 is 7.00 to 8.00.
